Reference: ChEMBL document CHEMBL1134695, “Synthesis and evaluation of novel quinolinones as HIV-1 reverse transcriptase inhibitors” (Bioorg Med Chem Lett, 2001)

What was measured:
[1] = tested on: Human immunodeficiency virus type 1 reverse transcriptase (Human immunodeficiency virus 1), Q72547 [UNDEFINED MUTATION]
[2] = tested on: Human immunodeficiency virus type 1 reverse transcriptase (Human immunodeficiency virus 1), Q72547 [K103N]
[3] = tested on: Human immunodeficiency virus 1; experiment: Antiviral activity against HIV-1 using antiinfectivity assay; format: functional, organism-based
[4] = target: Human immunodeficiency virus type 1 reverse transcriptase (Human immunodeficiency virus 1, UniProt Q72547); experiment: Inhibition of HIV-1 reverse transcriptase.
[5] = target: Human immunodeficiency virus type 1 reverse transcriptase (Human immunodeficiency virus 1) (UniProt Q72547)

Compound	C90 [1] [µM]	IC90 [2] [nM]	IC90 [3] [nM]	IC50 [4] [nM]	IC90 [5] [nM]
Nc1ccc(CO[C@H]2C(=O)Nc3ccc(Cl)cc3[C@@]2(C#CC2CC2)C(F)(F)F)cc1	3.85	1080	21	412	49
CCCO[C@H]1C(=O)Nc2ccc(Cl)cc2[C@@]1(C#CC1CC1)C(F)(F)F			62	1050	
O=C1Nc2ccc(Cl)cc2[C@@](C#CC2CC2)(C(F)(F)F)[C@H]1OCc1ccncc1	4.83	50	19	129	23
Nc1ccc(CO[C@H]2C(=O)Nc3ccc(Cl)cc3[C@@]2(C#CC2CC2)C(F)(F)F)cc1F			26	241	
O=C1Nc2ccc(Cl)cc2[C@@](C#CC2CC2)(C(F)(F)F)[C@H]1OCc1cccc(F)c1			201	1780	
O=C1Nc2ccc(Cl)cc2[C@@](C#CC2CC2)(C(F)(F)F)[C@H]1OCc1ccccn1			140	1570	
COC(=O)N[C@H]1C(=O)Nc2ccc(Cl)cc2[C@@]1(C#CC1CC1)C(F)(F)F			212	> 2000	
O=C1Nc2ccc(Cl)cc2[C@@](C#CC2CC2)(C(F)(F)F)[C@H]1OCc1ccccc1F			140	1300	
O=C1Nc2ccc(Cl)cc2[C@@](C#CC2CC2)(C(F)(F)F)[C@H]1OCc1ccccc1			71	440	
O=C1Nc2ccc(Cl)cc2[C@@](C#CC2CC2)(C(F)(F)F)[C@H]1O			637	> 2000	
O=C1Nc2ccc(Cl)cc2[C@@](C#CC2CC2)(C(F)(F)F)[C@H]1NCc1ccccc1			218	> 2000	
O=C1Nc2ccc(Cl)cc2[C@@](C#CC2CC2)(C(F)(F)F)[C@H]1OCc1ccc(F)cc1			112	899	
Nc1cccc(CO[C@H]2C(=O)Nc3ccc(Cl)cc3[C@@]2(C#CC2CC2)C(F)(F)F)c1			138	1460	
CC(C)=CCO[C@H]1C(=O)Nc2ccc(Cl)cc2[C@@]1(C#CC1CC1)C(F)(F)F			> 1000	> 2000	
O=C1C[C@](C#CC2CC2)(C(F)(F)F)c2cc(Cl)ccc2N1		1770	14	130	992
Nc1ccccc1CO[C@H]1C(=O)Nc2ccc(Cl)cc2[C@@]1(C#CC1CC1)C(F)(F)F			115	1020	
O=C1Nc2ccc(Cl)cc2[C@@](C#CC2CC2)(C(F)(F)F)[C@H]1OCc1cccnc1			20	438	
O=C1Nc2ccc(Cl)cc2[C@@](C#CC2CC2)(C(F)(F)F)[C@H]1OCC1CC1			130	1430	
CC(=O)N[C@H]1C(=O)Nc2ccc(Cl)cc2[C@@]1(C#CC1CC1)C(F)(F)F			917	> 2000	
